Assay results reported in patent publication US9220269B2, “Use of 6-substituted 9-halogenalkyl purines for regulation of growth and development of whole plants, plant cells and plant organs; novel 6-substituted 9-halogenalkyl purines” (UNIVERZITA PALACKEHO V OLOMOUCI, priority 2010, dated 2015).

What was measured:
[1] = test system: Amaranthus caudatus var. atropurpurea explants (cotyledons and hypocotyl); experiment: Amaranthus bioassay (betacyanin formation); conditions: for activity (%) [10^−5 mol. l^−1 iP = 100%]: at the concentration with highest activity; for concentration with highest activity: betacyanin formation, 48 h in darkness
Protocol: The standard Amaranthus bioassay with several modifications was used to study cytokinin activity of the novel compounds. The seeds of Amaranthus caudatus var. atropurpurea were surface-sterilised in 10% (w/v) N-chlorobenzenesulfonamide for 10 min and washed 5 times with deionized water. They were placed in 14 cm Petri dishes containing paper tissues saturated with deionized water. After 72 h of cultivation at 25° C. in darkness, the roots of the seedlings were cut off. The explants, consisting of two cotyledons and hypocotyl, were placed in 5 cm Petri dishes onto two layers of filter paper soaked with 1 ml of the incubation medium containing 10 μmol of Na2HPO4—KH2PO4, pH 6.8, 5 μmol of tyrosine and the cytokinin to be tested. There were 20 explants per dish. The procedure was carried out under a green safe light in a darkroom. After 48 h of incubation at 25° C. in darkness, betacyanin was extracted by freezing the explants in 4 ml […] acetic acid. The concentration of betacyanin was determined from the absorbances at 537 nm and 620 nm as follows: ΔA=A537 nm−A620 nm. The values ΔA were plotted against the concentration tested, are means of five replicates and the entire test was repeated twice. […] The compounds to be tested were dissolved in dimethylsulfoxide (DMSO) and the solution brought up to 10^−3 M with distilled water. […] The activity obtained for 10^−5 M iP was postulated as 100%.

[2] = test system: cytokinin-dependent tobacco callus Nicotiana tabacum L. cv. Wisconsin 38; experiment: cytokinin-dependent tobacco callus bioassay (plant cell division); type: cell-based; conditions: for activity (%) [10^−5 mol. l^−1 iP = 100%] / activity (%) [10^−6 mol. l^−1 Kin = 100%]: at the concentration with highest activity; for activity (%) [10^−5 mol. l^−1 iP = 100%]: relative to 10^−5 M iP; for effect on callus growth (cell proliferation) in high concentrations: concentrations exceeding 10 μM, up to 100 μM, FIG. 1; for activity (%) [10^−6 mol. l^−1 Kin = 100%]: relative to 10^−6 M Kin; for concentration with highest activity: growth of tobacco callus, fresh weight after four weeks
Protocol: Stimulatory effect of newly prepared derivatives was tested using cytokinin-dependent tobacco callus. The cytokinin-dependent tobacco callus Nicotiana tabacum L. cv. Wisconsin 38 was maintained at 25° C. in darkness on modified MS medium, containing per 1 liter: 4 μmol of nicotinic acid, 2.4 μmol of pyridoxine hydrochloroide, 1.2 μmol of thiamine, 26.6 μmol of glycine, 1.37 μmol of glutamine, 1.8 μmol of myo-inositol, 30 g of sucrose, 8 g of agar, 5.37 μmol of NAA and 0.5 μmol of the compound tested. Subcultivation was carried out every three weeks. Fourteen days before the bioassay, the callus tissue was transferred to the media without the compound tested. The biological activity was determined from the increase of the fresh callus weight after four weeks of cultivation. Six replicates were prepared for each concentration of the compound tested and the entire test was repeated twice. […] The compounds to be tested were dissolved in dimethylsulfoxide (DMSO) and the solution brought up to 10^−3 M with distilled water. […] From the obtained data, the concentration with the highest activity was selected for each compound tested. Relative activity of the compound at this concentration was calculated (Table 2). The activity obtained for 10^−6 M of the N9-unsubstituted parent cytokinins Kin and 10^−5 M iP, respectively, was postulated as 100% biological activity. […] For comparison, compounds bearing halogenbutyl substituent in position 9 were prepared and tested.
Cytokinins are known to have stimulatory effects on cell proliferation in their optimal concentrations, however typically in the concentrations exceeding 10 μM their effect on cell division turns into inhibitory (Holub et al., Plant Growth Regul. 26, 109-115, 1998). Therefore the effect of the high concentrations of the newly prepared derivatives was tested using cytokinin-dependent tobacco callus described in Example 6. The novel compounds 1, 2 and 4 were tested in high concentrations (1-100 μM) and the activities were compared with activities of their N9-unsubstituted parent cytokinins.

[3] = test system: detached leaf segments of Triticum aestivum cv. Hereward; experiment: senescence bioassay on detached wheat leaf segments in light conditions (chlorophyll retention); conditions: for concentration with highest activity: constant light 100 μmol·m^−2·s^−1, 22° C.; for activity (%) [10^−4 mol. l^−1 Kin = 100%]: light, at the concentration with highest activity
Protocol: (§1) Seeds of winter wheat, Triticum aestivum cv. Hereward, were washed under running water for 24 hours and then sown on vermiculite soaked with Knop's solution. They were placed in the growth chamber at 25° C. with a 16/8 h light period at 50 μmol·m^−2·s^−1. After 7 days, the first leaf was fully developed and the second leaf had started to grow. A tip section of the first leaf, approximately 35 mm long, was removed from 5 seedlings and trimmed slightly to a combined weight of 100 mg. The basal ends of the five leaf tips were placed in the wells of a microtiter polystyrene plate containing 150 μL of the tested derivative solution each. The entire plate was inserted into a plastic box lined with paper tissues soaked in distilled water to prevent leaf sections from drying out. After 96 h incubation in the dark at 25° C., the leaves were removed and chlorophyll extracted by heating at 80° C. for 10 min in 5 mL of 80% ethanol (v/v). The sample volume was then restored to 5 mL by the addition of 80% ethanol (v/v). The absorbance of the extract was recorded at 665 nm. In addition, chlorophyll extracts from fresh leaves and leaf tips incubated in deionised water were measured. The results are means of five replicates and the entire test was repeated twice. […] The compounds to be tested were dissolved in dimethylsulfoxide (DMSO) and the solution brought up to 10^−3M with distilled water. […] The activity obtained for 10^−4 M Kin was postulated as 100%.
The ability of the novel compounds to retard chlorophyll degradation in detached wheat leaves was tested also in the light conditions. The experiment was performed as described in Example 7 with modifications as follows—the incubation of the leaves with the compounds was done in the constant light (100 μmol·m^−2·s^−1) at 22° C.

[4] = test system: detached leaf segments of Triticum aestivum cv. Hereward; experiment: senescence bioassay on detached wheat leaf segments in dark conditions (chlorophyll retention); conditions: for concentration with highest activity: 96 h, 25° C., chlorophyll A665; for activity (%) [10^−4 mol. l^−1 Kin = 100%]: at the concentration with highest activity
Protocol: as §1

[5] = test system: Zea mays cv. CELLUX seedlings; experiment: root growth and development of maize seedlings in hydroponics; type: in vivo; conditions: FIG. 3
Protocol: To investigate in vivo effect of the new derivatives on the root growth and development, maize seeds (Zea mays cv. CELLUX, Morseva, Czech Republic) were imbibed in tap water and germinated in dark on a wetted filter paper. After 2 days, the germinated seedlings were transferred to aerated hydroponic tanks filled with Hoagland's nutrient solution (fifteens per one liter of Hoagland solution). The plants were grown in a chamber with 16 hrs light (250 μm-2 s-1) at 27° C. and 8 hrs dark period at 20° C. The nutrient solution was supplemented with 5 μM and 10 μM concentration of 6-furfurylamino-9-(2-chloroethyl)purine or 5 μM cytokinin kinetin (Kin). All solutions used for cytokinin treatment including negative control contained DMSO in final concentration of 0.01%.

VP14 gene = experiment: expression of VP14 stress gene in intact maize plants (RT-PCR); type: in vivo, Zea mays; conditions: 5 μM; for Relative amount of transcripts, leaf / Relative amount of transcripts, root: 3 days, related to untreated control = 1; for effect on VP14 expression / stress response: in words
Protocol: Abscisic acid has a direct effect on up-regulation of genes involved in stress responses (Tan et al., 1997, Proc Natl Acad Sci USA, 94, 12235-40). 5-days-old maize seedlings were carefully transferred from substrate to nutrient solution supplemented with tested compound in 5 μM concentration and were cultivated for another 3 days. Transcript copy number of VP14 gene was determined in roots and leaves of treated plants independently by method of reverse transcription polymerase chain reaction.

[6] = test system: membrane lipid peroxidation in detached leaves of Triticum aestivum cv. Hereward; experiment: membrane lipid peroxidation (MDA, TBA method) in detached wheat leaves during dark senescence
Protocol: A typical symptom associated with senescence as a direct consequence of increased reactive oxygen species is lipid peroxidation. Therefore the levels of MDA, a decomposition product of lipid peroxidation, were measured in detached wheat leaves that were exposed to the prepared novel derivatives and kinetin for four days in the dark as described in Example 7. MDA levels were measured using a thiobarbituric acid (TBA) method. In detail, 100 mg of fresh plant material was homogenized by high speed shaking in a ball mill (MM301, Retsch, Germany) with 1 mL of 80% methanol. The crude extract was centrifuged at 10,000×g for 5 min, and 100 μL aliquot of supernatant was vortexed with 100 μL of 0.5% (w/v) TBA containing 0.1% (w/v) trichloroacetic acid, and the resulting solution was then incubated for 30 min at 95° C. The samples were quickly cooled on ice and recentrifuged for 5 min at 1000×g. The absorbance of supernatant was measured at 532 nm with background subtraction at 600 nm and the amount of MDA-TBA complex was calculated from the coefficient of absorbance 155 mM^−1 cm^−1.

SMILES | effect on callus growth (cell proliferation) in high concentrations [2] | concentration with highest activity [3] | activity (%) [10^−4 mol. l^−1 Kin = 100%] [3] | activity (%) [10^−6 mol. l^−1 Kin = 100%] [2] | concentration with highest activity [4] | activity (%) [10^−4 mol. l^−1 Kin = 100%] [4] | also measured
CC(C)=CCNc1ncnc2nc[nH]c12 [6-(3-methylbut-2-en-1-yl)aminopurine, reference compound] | inhibited strongly the callus growth |  |  |  |  |  | activity (%) [10^−5 mol. l^−1 iP = 100%] [1]: 100%; concentration with highest activity [1]: 10^−5 mol. l^−1; activity (%) [10^−5 mol. l^−1 iP = 100%] [2]: 100%
BrCCCCn1cnc2c(NCc3ccco3)ncnc21 [6-furfurylamino-9-(4-bromobutyl)purine, reference compound] |  | 10^−4 mol. l^−1 | 60 (±16) % | 45 (±8) % | 10^−4 mol. l^−1 | 1.2 (±2) % | 
ClCCCCn1cnc2c(NCc3ccco3)ncnc21 [6-furfurylamino-9-(4-chlorobutyl)purine, reference compound] |  | 10^−4 mol. l^−1 | 119 (±6) % | 62 (±7) % | 10^−4 mol. l^−1 | 72 (±13) % | 
c1coc(CNc2ncnc3nc[nH]c23)c1 [6-furfurylaminopurine (Kin), 6-furfurylaminopurine, reference compound] | inhibited strongly the callus growth | 10^−4 mol. l^−1 | 100% | 100% | 10^−4 mol. l^−1 | 100% | root and shoot phenotype of maize plants ([5]; 5 μM in nutrient solution): dramatic thickening and shortening of primary root with no lateral root formation; Relative amount of transcripts, leaf (VP14 gene): 16.3 (±4.0); Relative amount of transcripts, root (VP14 gene): 3.4 (±0.8); effect on VP14 expression / stress response (VP14 gene): significantly increases VP14 expression in both root and leaves of maize
ClCCn1cnc2c(NCc3ccco3)ncnc21 [Compound 1, 6-furfurylamino-9-(2-chloroethyl)purine] | still kept their stimulatory effect | 10^−5 mol. l^−1 | 116 (±7) % | 120 (±6) % | 10^−4 mol. l^−1 | 120 (±15) % | root and shoot phenotype of maize plants ([5]; 5 μM in nutrient solution): almost identical to DMSO treated negative control; root and shoot phenotype of maize plants ([5]; 10 μM in nutrient solution): only slightly reduced length of primary and lateral roots; Relative amount of transcripts, leaf (VP14 gene): 1.1 (±0.3); Relative amount of transcripts, root (VP14 gene): 0.4 (±0.1); effect on VP14 expression / stress response (VP14 gene): does not induce any stress response; level of membrane lipid peroxidation reduced to ([6]; dark senescence, compared to untreated control): 67%; MDA ([6]; detached wheat leaves, four days in the dark, untreated control 18.9 (±2.2)): 12.8 (±1.0) nmol/g FW
BrCCn1cnc2c(NCc3ccco3)ncnc21 [Compound 2, 6-furfurylamino-9-(2-bromoethyl)purine] |  | 10^−4 mol. l^−1 | 121 (±8) % | 110 (±3) % | 10^−4 mol. l^−1 | 102 (±3) % | 
CC(C)=CCNc1ncnc2c1ncn2CCBr [Compound 3, 6-[(3-methylbut-2-en-1-yl)amino]-9-(2-bromoethyl)purine] |  |  |  |  |  |  | activity (%) [10^−5 mol. l^−1 iP = 100%] [1]: 116 (±9) %; concentration with highest activity [1]: 10^−4 mol. l^−1; activity (%) [10^−5 mol. l^−1 iP = 100%] [2]: 103 (±4) %
CC(C)=CCNc1ncnc2c1ncn2CCCl [Compound 4, 6-[(3-methylbut-2-en-1-yl)amino]-9-(2-chloroethyl)purine] | still kept their stimulatory effect |  |  |  |  |  | activity (%) [10^−5 mol. l^−1 iP = 100%] [1]: 128 (±11) %; concentration with highest activity [1]: 10^−4 mol. l^−1; activity (%) [10^−5 mol. l^−1 iP = 100%] [2]: 112 (±7) %
COc1cccc(CNc2ncnc3c2ncn3CCCl)c1 [Compound 38] |  |  |  | 106 (±5) % | 10^−4 mol. l^−1 | 116 (±7) % | concentration with highest activity [2]: 10^−5 mol. l^−1
Oc1cccc(CNc2ncnc3c2ncn3CCCl)c1 [Compound 47] |  |  |  | 111 (±2) % | 10^−4 mol. l^−1 | 111 (±9) % | concentration with highest activity [2]: 10^−5 mol. l^−1
C/C(=C\C(C)Nc1ncnc2c1ncn2CCCl)CO (stereo not drawn) [Compound 136, 6-(E)-(4-hydroxy-1,3-dimethylbut-2-en-1-ylamino)-9-(2-chloroethyl)purine] |  |  |  | 115 (±7) % | 10^−4 mol. l^−1 | 114 (±4) % | 
